Test results taken from patent US10975037B2 (priority 2018, dated 2021).
Read-outs that look alike come from different tables or passages of the source.

How the values were obtained:
full-length human RORγt = full-length human RORγt (Homo sapiens (Human), UniProt P51449); assay: RORγt (full-length human) reporter assay, conditions A or B, HEK293T cells; assay type: cell-based; conditions: for IC50: RORγt (FL) Reporter Assay A or B, IC50, HEK293T cells; for inhibition at 6 µM: read-out: RORγt (FL) Reporter Assay A or B, % inhibition @ 6 μM, 6 μM compound concentration; for inhibition at 2 µM: 2 μM compound concentration; for inhibition at 0.67 µM: 0.67 μM compound concentration (footnote ****)
Experimental: RORγt (Full-Length Human) Reporter Assay:
(§1) HEK293T cells were plated at 35,000 per well in 96-well plate in medium of DMEM with 10% FBS. […] After overnight (16 to 20 hours) incubation, media were removed and cells were lysed with 50 L Glo Lysis Buffer (Promega) for 10-15 minutes followed by 10 minute incubation with 50 μL Dual Glo reagent (Promega) at room temperature. Firefly luciferase luminescence was measured using a BMG Pherastar plate reader. To each well, 50 μL Stop and Glo reagent was added and incubated for 10 minutes at room temperature. Renilla luminescence was measured using a BMG Pherastar plate reader. To calculate the effect of compounds on RORγt activity, firefly values were normalized against values of DMSO only and values of reference compound at saturating concentration, then further normalized against Renilla signals. IC50s were generated by plotting final Renilla normalized data against compound concentration and percent inhibition was calculated against DMSO control.
as §1, with “at 8750 cells” for “at 35,000”, “in 384-well” for “in 96-well”, “with 20” for “with 50”, “well, 20” for “well, 50”

[1] = molecular target: human RORγt ligand binding domain (RORγt LBD) (Homo sapiens (Human), UniProt P51449); assay: RORγt ThermoFluor® assay (thermal shift binding); conditions: ThermoFluor® Assay, Kd
Experimental: This approach is applicable to a wide variety of systems, and rigorous in theoretical interpretation through quantitation of equilibrium binding constants (KD).
The shift in the melting point described as a ΔTm is proportional to the concentration and affinity of the ligand.
RORγt ThermoFluor® Assay Construct
Reference wells contained RORγt without compounds, and the assay conditions were as follows: • 0.065 mg/mL RORγt • 60 μM 1,8-ANS • 100 mM Hepes, pH 7.0 • 10 mM NaCl • 2.5 mM GSH • 0.002% Tween-20
Project compounds were arranged in a pre-dosed mother plate (Greiner Bio-one) wherein compounds are serially diluted in 100% DMSO by 1:2 from a high concentration of 10 mM over 12 columns within a series (column 12 is a reference well containing DMSO, no compound). The compounds were robotically dispensed directly into assay plates (1×=46 nL) using a Hummingbird capillary liquid handling instrument (Digilab). Following compound dispense, protein and dye in buffer was added to achieve the final assay volume of 3 μL, followed by 1 μL of silicone oil.

[2] = HEK-293T, read-out: RORγt (FL) Reporter Assay A or B, % inhibition

Chain of human RORγt ligand binding domain (RORγt LBD) (P51449 other isoform, or with tags, fused parts or gaps): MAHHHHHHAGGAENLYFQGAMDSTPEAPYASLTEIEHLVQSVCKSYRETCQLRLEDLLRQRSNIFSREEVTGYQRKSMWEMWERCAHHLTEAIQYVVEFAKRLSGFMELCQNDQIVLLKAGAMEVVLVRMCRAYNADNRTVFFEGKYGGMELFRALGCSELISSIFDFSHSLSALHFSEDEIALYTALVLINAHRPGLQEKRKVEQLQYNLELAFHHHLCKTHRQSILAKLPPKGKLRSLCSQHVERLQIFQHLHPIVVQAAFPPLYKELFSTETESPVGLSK
Chain of full-length human RORγt (P51449 other isoform, or with tags, fused parts or gaps): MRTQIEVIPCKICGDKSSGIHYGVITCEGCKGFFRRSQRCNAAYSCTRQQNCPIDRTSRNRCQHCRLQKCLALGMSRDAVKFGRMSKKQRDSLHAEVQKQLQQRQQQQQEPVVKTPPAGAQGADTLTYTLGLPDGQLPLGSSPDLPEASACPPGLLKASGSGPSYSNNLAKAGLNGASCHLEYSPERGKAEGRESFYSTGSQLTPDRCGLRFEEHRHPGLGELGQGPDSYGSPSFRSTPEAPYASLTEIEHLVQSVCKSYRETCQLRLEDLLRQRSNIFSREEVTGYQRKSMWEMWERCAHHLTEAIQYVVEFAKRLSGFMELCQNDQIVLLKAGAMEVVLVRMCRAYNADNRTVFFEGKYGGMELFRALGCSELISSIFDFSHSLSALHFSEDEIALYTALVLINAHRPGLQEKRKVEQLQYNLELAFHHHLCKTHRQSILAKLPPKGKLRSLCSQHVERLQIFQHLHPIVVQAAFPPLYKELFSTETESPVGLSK

Structure (SMILES) | IC50 (full-length human RORγt) | Kd [1] | inhibition at 6 µM (full-length human RORγt; HEK-293T) | inhibition at 2 µM (full-length human RORγt; [2]) | other results
CCn1nc(C(=O)NC[C@@H]2CC[C@@H](S(C)(=O)=O)CO2)c(Cl)c1-c1ccc(CC(C)(C)C(F)(F)F)cc1OC(F)F (racemic) [Example 14, 4-Chloro-5-(2-(difluoromethoxy)-4-(3,3,3-trifluoro-2,2-dimethylpropyl)phenyl)-1-ethyl-N-(((2RS,5SR)-5-(methylsulfonyl)tetrahydro-2H-pyran-2-yl)methyl)-1H-pyrazole-3-carboxamide] | 1.6 nM | 0.14 nM | – | – | inhibition at […] (full-length human RORγt; HEK-293T, 0.22 μM compound concentration (footnote *******), read-out: RORγt (FL) Reporter Assay A or B, % inhibition): 99%
CCn1nc(C(=O)NC[C@H]2CC[C@@H](S(C)(=O)=O)CO2)c(Cl)c1-c1ccc(N[C@H](C)C(F)(F)F)cc1OC (relative stereo) [Example 17, 4-Chloro-1-ethyl-5-(2-methoxy-4-(((R)-1,1,1-trifluoropropan-2-yl)amino)phenyl)-N-(((2R*,5R*)-5-(methylsulfonyl)tetrahydro-2H-pyran-2-yl)methyl)-1H-pyrazole-3-carboxamide] | 2200 nM | 1300 nM | 67% | – | –
CCn1nc(C(=O)NC[C@]2(CO)CC[C@@H](S(C)(=O)=O)CC2)c(Cl)c1-c1ccc(N[C@H](C)C(F)(F)F)cc1OC (relative stereo) [Example 93, 4-Chloro-1-ethyl-N-(((1s*,4S*)-1-(hydroxymethyl)-4-(methylsulfonyl)cyclohexyl)methyl)-5-(2-methoxy-4-(((R)-1,1,1-trifluoropropan-2-yl)amino)phenyl)-1H-pyrazole-3-carboxamide] | 30 nM | 11 nM | – | 96% | –
CCOC(=O)[C@]1(CNC(=O)c2nn(CC)c(-c3ccc(N[C@H](C)C(F)(F)F)cc3OC)c2Cl)CC[C@H](S(C)(=O)=O)CC1 (relative stereo) [Example 94, Ethyl (1s*,4S*)-1-((4-chloro-1-ethyl-5-(2-methoxy-4-(((R)-1,1,1-trifluoropropan-2-yl)amino)phenyl)-1H-pyrazole-3-carboxamido)methyl)-4-(methylsulfonyl)cyclohexane-1-carboxylate] | 6 nM | 0.22 nM | 101% | – | –
CCn1nc(C(=O)NC[C@]2(C(=O)O)CC[C@@H](S(C)(=O)=O)CC2)c(Cl)c1-c1ccc(N[C@H](C)C(F)(F)F)cc1OC (relative stereo) [Example 97, (1s*,4S*)-1-((4-Chloro-1-ethyl-5-(2-methoxy-4-(((R)-1,1,1-trifluoropropan-2-yl)amino)phenyl)-1H-pyrazole-3-carboxamido)methyl)-4-(methylsulfonyl)cyclohexane-1-carboxylic Acid] | 730 nM | 180 nM | 94% | – | –
CCn1nc(C(=O)NC[C@]2(O)CC[C@@H](S(C)(=O)=O)CC2)c(C)c1-c1ccc(C[C@@H](C)C(F)(F)F)cc1OC(F)F [Example 142, 5-(2-(Difluoromethoxy)-4-((R)-3,3,3-trifluoro-2-methylpropyl)phenyl)-1-ethyl-N-(((1s,4S)-1-hydroxy-4-(methylsulfonyl)cyclohexyl)methyl)-4-methyl-1H-pyrazole-3-carboxamide] | – | – | – | – | inhibition at […] (full-length human RORγt; HEK-293T, 0.33 μM compound concentration (footnote *****), read-out: RORγt (FL) Reporter Assay A or B, % inhibition): 87%
CCn1nc(C(=O)NC[C@]2(O)CC[C@@H](S(C)(=O)=O)CC2)c(Cl)c1-c1ccc(CCC(F)(F)F)cc1C(F)(F)F [Example 170, 4-Chloro-1-ethyl-N-(((1s,4s)-1-hydroxy-4-(methylsulfonyl)cyclohexyl)methyl)-5-(2-(trifluoromethyl)-4-(3,3,3-trifluoropropyl)phenyl)-1H-pyrazole-3-carboxamide] | > 2000 nM | – | – | 5% | –
[2H]C([2H])([2H])Oc1cc(CC(C)(C)C(F)(F)F)ccc1-c1c(Cl)c(C(=O)NC[C@H]2CC[C@H](S(C)(=O)=O)CC2)nn1CC [Example 193, 4-Chloro-1-ethyl-5-(2-(methoxy-d3)-4-(3,3,3-trifluoro-2,2-dimethylpropyl)phenyl)-N-(((1r,4r)-4-(methylsulfonyl)cyclohexyl)methyl)-1H-pyrazole-3-carboxamide] | – | – | – | – | inhibition at 0.67 µM (full-length human RORγt; [2]): 93%

Now from value to molecule, other results behind:

IC50 (full-length human RORγt) | Kd [1] | inhibition at 6 µM (full-length human RORγt; HEK-293T) | inhibition at 2 µM (full-length human RORγt; [2]) | Structure (SMILES) | other results
830 nM | 240 nM | 102% | – | CCn1nc(C(=O)NC[C@@H]2CC[C@H](S(C)(=O)=O)CO2)c(Cl)c1-c1ccc(N[C@H](C)C(F)(F)F)cc1OC (relative stereo) [Example 18, 4-Chloro-1-ethyl-5-(2-methoxy-4-(((R)-1,1,1-trifluoropropan-2-yl)amino)phenyl)-N-(((2S*,5S*)-5-(methylsulfonyl)tetrahydro-2H-pyran-2-yl)methyl)-1H-pyrazole-3-carboxamide] | –
380 nM | 110 nM | – | 76% | CCOC(=O)[C@]1(CNC(=O)c2nn(CC)c(-c3ccc(N[C@H](C)C(F)(F)F)cc3OC)c2Cl)CC[C@@H](S(C)(=O)=O)CC1 (relative stereo) [Example 95, Ethyl (1r*,4R*)-1-((4-chloro-1-ethyl-5-(2-methoxy-4-(((R)-1,1,1-trifluoropropan-2-yl)amino)phenyl)-1H-pyrazole-3-carboxamido)methyl)-4-(methylsulfonyl)cyclohexane-1-carboxylate] | –
> 6000 nM | 25000 nM | -10% | – | CCn1nc(C(=O)NC[C@]2(C(=O)O)CC[C@H](S(C)(=O)=O)CC2)c(Cl)c1-c1ccc(N[C@H](C)C(F)(F)F)cc1OC (relative stereo) [Example 96, (1r*,4R*)-1-((4-Chloro-1-ethyl-5-(2-methoxy-4-(((R)-1,1,1-trifluoropropan-2-yl)amino)phenyl)-1H-pyrazole-3-carboxamido)methyl)-4-(methylsulfonyl)cyclohexane-1-carboxylic Acid] | –
49 nM | 9 nM | – | – | Cn1nc(C(=O)NC[C@@]2(O)CC[C@H](S(C)(=O)=O)C[C@@H]2O)c(Cl)c1-c1ccc(CC(C)(C)C(F)(F)F)cc1OC(F)F (relative stereo) [Example 153, 4-Chloro-5-(2-(difluoromethoxy)-4-(3,3,3-trifluoro-2,2-dimethylpropyl)phenyl)-N-(((1S*,2S*,4S*)-1,2-dihydroxy-4-(methylsulfonyl)cyclohexyl)methyl)-1-methyl-1H-pyrazole-3-carboxamide] | inhibition at 3 µM (full-length human RORγt; HEK-293T, 3 μM compound concentration (footnote *), read-out: RORγt (FL) Reporter Assay A or B, % inhibition): 85%
6 nM | 0.6 nM | – | – | CCn1nc(C(=O)NC[C@H]2CC[C@H](S(C)(=O)=O)CC2)c(Cl)c1-c1ccc(C[C@@H](C)C(F)(F)F)cc1OC (single isomer, unassigned) [Example 1, 4-Chloro-1-ethyl-5-(2-methoxy-4-((R*)-3,3,3-trifluoro-2-methylpropyl)phenyl)-N-(((1r,4R)-4-(methylsulfonyl)cyclohexyl)methyl)-1H-pyrazole-3-carboxamide] | inhibition at 0.67 µM (full-length human RORγt; [2]): 99%
– | – | – | 96% | [2H]C([2H])([2H])Oc1cc(CC(C)(C)C(F)(F)F)ccc1-c1c(Cl)c(C(=O)NC[C@]2(O)CC[C@@H](S(C)(=O)=O)CC2)nn1CC [Example 192, 4-Chloro-1-ethyl-N-(((1s,4s)-1-hydroxy-4-(methylsulfonyl)cyclohexyl)methyl)-5-(2-(methoxy-d3)-4-(3,3,3-trifluoro-2,2-dimethylpropyl)phenyl)-1H-pyrazole-3-carboxamide] | –
– | – | – | 82% | CCn1nc(C(=O)NC[C@H]2CC[C@H](S(C)(=O)=O)CC2)c(Cl)c1-c1ccc(OCC2CC2(F)F)cc1OC (stereo partly drawn) [Example 209, 4-Chloro-5-(4-((2,2-difluorocyclopropyl)methoxy)-2-methoxyphenyl)-1-ethyl-N-(((1r,4r)-4-(methylsulfonyl)cyclohexyl)methyl)-1H-pyrazole-3-carboxamide] | –
